Assays:
[1] = target: T1, human GPR52 (Homo sapiens, UniProt Q9Y2T5); experiment: GPR52 Agonist Functional cAMP Assay; assay type: cell-based; settings: normalised to DMSO (0%) and maximal compound 7m (J. Med. Chem., 2014, 57, 5226) response (100%)
T1 construct: expressed in transfected cells; host or cells: HEKf suspension cells infected with BacMam virus
Procedure: HEKf suspension cells were infected for 24 h with 0.1% v/v human GPR52 expressing BacMam virus, a modified baculovirus designed for mammalian gene expression. Following BacMam infection, cells were pelleted by centrifugation (335 g, 5 min), resuspended in cell freezing medium (Sigma) and frozen at −150° C. until required. On experiment day, 25 nL GPR52 compound dilutions, prepared in DMSO, were stamped onto proxiplates (PerkinElmer) by a LabCyte ECHO acoustic dispenser. Frozen cells were thawed and resuspended in assay stimulation buffer (Cisbio) containing 0.5 mM 3-iso-butyl-1-methylxanthine (IBMX, Sigma) to achieve a density of 2000 cells per well. 10 μl cells were added to assay plates using a Multidrop Combi Reagent Dispenser (ThermoFisher) before centrifugation (335 g, 1 min). Cells were incubated with compounds at 37° C. for 30 min prior to addition of cAMP detection reagents (HiRange cAMP kit, Cisbio) which were prepared according to the manufacturer's instructions. Plates were shaken for 1 h at room temperature before reading on a PHERAstar FS plate reader (BMG Labtech) using standard HTRF settings. HTRF ratios were obtained by dividing the acceptor emissions (665 nm) by the donor emissions (620 nm) and multiplying by 10,000.

[2] = Pharmacokinetic profiling in male Sprague-Dawley rats (IV and PO); assay type: in vivo; settings: plasma, Rat PO, 3 mg/kg, n = 3, mean ± standard deviation
Procedure: The pharmacokinetic profiles of Example 39 were assessed in male Sprague-Dawley rats via intravenous (IV) and oral (per os, PO) routes of delivery. Pharmacokinetic data (mean values ±standard deviation) for Example 39 of the invention are detailed in Table 5.
Methods: For pharmacokinetic analysis, groups of three male Sprague-Dawley rats, ranging in weight between 200 and 230 g, were administered a single dose of Example 39 via IV or PO route, using the doses, dose volumes and vehicles specified in Table 5. Following dosing, blood samples were taken at several time points (pre-dose, 2 min, 5 min, 15 min, 30 min, 1 h, 3 h, 6 h, 12 h and 24 h for IV administration and pre-dose, 5 min, 15 min, 30 min, 1 hr, 2 h, 4 h, 8 h, 12 h and 24 h for PO administration) via serial tail vein bleeds, and centrifuged to separate plasma for analysis by LC-MS/MS. WinNonlin v8.2 statistics software (Pharsight Corporation, California, USA) was used to generate pharmacokinetic parameters using non-compartmental analysis.

[3] = system: caffeine-induced hyperlocomotor activity; experiment: Caffeine-induced locomotor activity in rat; assay type: in vivo, male Sprague-Dawley rats; settings: 0.1, 0.3, 1 and 3 mg/kg PO, 60 min before caffeine 15 mg/kg s.c.; statistical significance at 1 and 3 mg/kg
Description: Caffeine, a non-selective adenosine receptor antagonist, is a psychostimulant which increases rodent locomotor activity principally via blockade of A2A receptors (Br. J. Pharmacol., 2000, 129, 1465). These receptors are densely expressed on the terminals of GABAergic striatopallidal neurons in the indirect pathway of the basal ganglia, in which dopamine D2 receptors are co-expressed (J. Comp. Neurol., 1998, 401, 163; J. Comp. Neurol., 2001, 431, 331). Tonic activation of A2A receptors decreases the affinity of D2 receptors to dopamine and antagonism of A2A receptors facilitates dopaminergic signalling (Curr. Pharm. Des., 2008, 14, 1468). […] Male Sprague-Dawley rats (200-250 g) were housed in groups with a 12 h light/dark cycle (lights on at 07.00), at an ambient temperature of 21±2° C. and with standard pelleted diet and water adlibitum. Testing was carried out in the light phase. On the day of the experiment, animals were habituated to the locomotor cages for a 60-minute period. Subsequently, they were dosed with vehicle or Example 39 (0.1, 0.3, 1 and 3 mg/kg) by the oral route and returned to the appropriate locomotor cage. Example 39 was formulated in a vehicle of 10% DMAC, 10% solutol (Kolliphor HS15) and 80% water (v/v/v). […] Locomotor activity was assessed for a 2 h period after caffeine treatment. […] SEMs were calculated from the residuals of the statistical model. […]

T1 sequence (Q9Y2T5 whole entry): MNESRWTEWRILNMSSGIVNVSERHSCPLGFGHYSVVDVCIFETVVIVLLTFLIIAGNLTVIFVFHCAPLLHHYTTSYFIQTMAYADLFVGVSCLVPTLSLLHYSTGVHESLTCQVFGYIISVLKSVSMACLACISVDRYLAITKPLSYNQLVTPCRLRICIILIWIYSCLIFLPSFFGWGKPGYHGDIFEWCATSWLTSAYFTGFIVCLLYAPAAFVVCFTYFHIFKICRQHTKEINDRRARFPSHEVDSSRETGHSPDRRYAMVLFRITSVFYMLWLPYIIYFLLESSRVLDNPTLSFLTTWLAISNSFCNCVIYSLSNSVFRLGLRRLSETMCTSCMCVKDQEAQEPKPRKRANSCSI

Emax [1]: 101% | bioavailability [2]: 77.4 ± 14.9%
SMILES: Cc1nn(-c2cc(Cc3cc(F)cc(C(F)(F)F)c3)ccn2)c(CO)c1C(N)=O [Example 39, 1-(4-(3-fluoro-5-(trifluoromethyl)benzyl)pyridin-2-yl)-5-(hydroxymethyl)-3-methyl-1H-pyrazole-4-carboxamide]
effect on caffeine-induced hyperlocomotor response [3]: dose-dependent reduction

Reference: patent US12655120B2, “GPR52 modulator compounds” (NXERA PHARMA UK LIMITED, priority 2020, dated 2026)
